Each molecule was assayed on BT-474 (assay: drug sensitivity score (DSS), CellTiter-Glo (DSS (AUC-based score)); higher = stronger drug effect (viability inhibition or cytotoxicity); extreme values may be limits of the assay). Details: incubation time: 72 h.
How it was run: (§1)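 In 384-well plates, compound was laid out at 5 concentrations in 10-fold steps over a 10,000-fold range specific to each compound, and breast cancer cell lines were seeded on top in 20 µl suspension for a 72 h incubation. CellTox Green fluorescence and then CellTiter-Glo luminescence were read, and each plate was normalised to 0.1 % DMSO and a positive kill control. The drug sensitivity score was calculated from the area under the fitted dose-response curve.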

SMILES	drug sensitivity score
Cc1cc(C(C)Nc2ccccc2)c2nc(N3CCOCC3)cc(=O)n2c1 (centres undefined) [TGX-221]	3.45
CC(C)C[C@H](NC(=O)[C@H](Cc1ccccc1)NC(=O)c1cnccn1)B(O)O [Bortezomib]	24.4
O=C(c1ccc(OCCN2CCCCC2)cc1)c1c(-c2ccc(O)cc2)sc2cc(O)ccc12 [Raloxifene]	0.666
COc1c(C)cnc(Cn2cnc3c(Cl)nc(N)nc32)c1C [BIIB021]	12.4

What follows are molecules tested on BT-549 in the same assay as above. Details: incubation time: 72 h.
How it was run: as §1

SMILES	drug sensitivity score
Cc1cc(C(C)Nc2ccccc2)c2nc(N3CCOCC3)cc(=O)n2c1 (centres undefined) [TGX-221]	2.27
CC(C)C[C@H](NC(=O)[C@H](Cc1ccccc1)NC(=O)c1cnccn1)B(O)O [Bortezomib]	28.8
O=C(c1ccc(OCCN2CCCCC2)cc1)c1c(-c2ccc(O)cc2)sc2cc(O)ccc12 [Raloxifene]	0
COc1c(C)cnc(Cn2cnc3c(Cl)nc(N)nc32)c1C [BIIB021]	15.7

These molecules were tested on CAL-120 in the same assay as above. Details: incubation time: 72 h.
How it was run: as §1

SMILES	drug sensitivity score
Cc1cc(C(C)Nc2ccccc2)c2nc(N3CCOCC3)cc(=O)n2c1 (centres undefined) [TGX-221]	0.0447
CC(C)C[C@H](NC(=O)[C@H](Cc1ccccc1)NC(=O)c1cnccn1)B(O)O [Bortezomib]	19.9
O=C(c1ccc(OCCN2CCCCC2)cc1)c1c(-c2ccc(O)cc2)sc2cc(O)ccc12 [Raloxifene]	0
COc1c(C)cnc(Cn2cnc3c(Cl)nc(N)nc32)c1C [BIIB021]	10.1

Each molecule was assayed on CAL-148 in the same assay as above. Details: incubation time: 72 h.
How it was run: as §1

SMILES	drug sensitivity score
Cc1cc(C(C)Nc2ccccc2)c2nc(N3CCOCC3)cc(=O)n2c1 (centres undefined) [TGX-221]	0
CC(C)C[C@H](NC(=O)[C@H](Cc1ccccc1)NC(=O)c1cnccn1)B(O)O [Bortezomib]	14.4
O=C(c1ccc(OCCN2CCCCC2)cc1)c1c(-c2ccc(O)cc2)sc2cc(O)ccc12 [Raloxifene]	0
COc1c(C)cnc(Cn2cnc3c(Cl)nc(N)nc32)c1C [BIIB021]	15.8

What follows are molecules tested on CAL-51 in the same assay as above. Details: incubation time: 72 h.
How it was run: as §1

SMILES	drug sensitivity score
Cc1cc(C(C)Nc2ccccc2)c2nc(N3CCOCC3)cc(=O)n2c1 (centres undefined) [TGX-221]	10.7
CC(C)C[C@H](NC(=O)[C@H](Cc1ccccc1)NC(=O)c1cnccn1)B(O)O [Bortezomib]	18.3
O=C(c1ccc(OCCN2CCCCC2)cc1)c1c(-c2ccc(O)cc2)sc2cc(O)ccc12 [Raloxifene]	0
COc1c(C)cnc(Cn2cnc3c(Cl)nc(N)nc32)c1C [BIIB021]	17.2

These molecules were tested on CAL-85-1 in the same assay as above. Details: incubation time: 72 h.
How it was run: as §1

SMILES	drug sensitivity score
Cc1cc(C(C)Nc2ccccc2)c2nc(N3CCOCC3)cc(=O)n2c1 (centres undefined) [TGX-221]	0
CC(C)C[C@H](NC(=O)[C@H](Cc1ccccc1)NC(=O)c1cnccn1)B(O)O [Bortezomib]	28.4
O=C(c1ccc(OCCN2CCCCC2)cc1)c1c(-c2ccc(O)cc2)sc2cc(O)ccc12 [Raloxifene]	1.62
COc1c(C)cnc(Cn2cnc3c(Cl)nc(N)nc32)c1C [BIIB021]	14.7

What follows are molecules tested on DU-4475 in the same assay as above. Details: incubation time: 72 h.
How it was run: as §1

SMILES	drug sensitivity score
Cc1cc(C(C)Nc2ccccc2)c2nc(N3CCOCC3)cc(=O)n2c1 (centres undefined) [TGX-221]	0
CC(C)C[C@H](NC(=O)[C@H](Cc1ccccc1)NC(=O)c1cnccn1)B(O)O [Bortezomib]	17.5
O=C(c1ccc(OCCN2CCCCC2)cc1)c1c(-c2ccc(O)cc2)sc2cc(O)ccc12 [Raloxifene]	0
COc1c(C)cnc(Cn2cnc3c(Cl)nc(N)nc32)c1C [BIIB021]	17.8

The molecules below were run on HCC1143 in the same assay as above. Details: incubation time: 72 h.
How it was run: as §1

SMILES	drug sensitivity score
Cc1cc(C(C)Nc2ccccc2)c2nc(N3CCOCC3)cc(=O)n2c1 (centres undefined) [TGX-221]	0
CC(C)C[C@H](NC(=O)[C@H](Cc1ccccc1)NC(=O)c1cnccn1)B(O)O [Bortezomib]	19.3
O=C(c1ccc(OCCN2CCCCC2)cc1)c1c(-c2ccc(O)cc2)sc2cc(O)ccc12 [Raloxifene]	0
COc1c(C)cnc(Cn2cnc3c(Cl)nc(N)nc32)c1C [BIIB021]	11.5

Each molecule was assayed on MCF-10A in the same assay as above. Details: incubation time: 72 h.
How it was run: as §1

SMILES	drug sensitivity score
Cc1cc(C(C)Nc2ccccc2)c2nc(N3CCOCC3)cc(=O)n2c1 (centres undefined) [TGX-221]	0
CC(C)C[C@H](NC(=O)[C@H](Cc1ccccc1)NC(=O)c1cnccn1)B(O)O [Bortezomib]	9.83
O=C(c1ccc(OCCN2CCCCC2)cc1)c1c(-c2ccc(O)cc2)sc2cc(O)ccc12 [Raloxifene]	0
COc1c(C)cnc(Cn2cnc3c(Cl)nc(N)nc32)c1C [BIIB021]	15.5

Each molecule was assayed on MDA-MB-453 in the same assay as above. Details: incubation time: 72 h.
How it was run: as §1

SMILES	drug sensitivity score
Cc1cc(C(C)Nc2ccccc2)c2nc(N3CCOCC3)cc(=O)n2c1 (centres undefined) [TGX-221]	0
CC(C)C[C@H](NC(=O)[C@H](Cc1ccccc1)NC(=O)c1cnccn1)B(O)O [Bortezomib]	16.8
O=C(c1ccc(OCCN2CCCCC2)cc1)c1c(-c2ccc(O)cc2)sc2cc(O)ccc12 [Raloxifene]	0
COc1c(C)cnc(Cn2cnc3c(Cl)nc(N)nc32)c1C [BIIB021]	16.2

The molecules below were run on SK-BR-3 in the same assay as above. Details: incubation time: 72 h.
How it was run: as §1

SMILES	drug sensitivity score
Cc1cc(C(C)Nc2ccccc2)c2nc(N3CCOCC3)cc(=O)n2c1 (centres undefined) [TGX-221]	0
CC(C)C[C@H](NC(=O)[C@H](Cc1ccccc1)NC(=O)c1cnccn1)B(O)O [Bortezomib]	26.4
O=C(c1ccc(OCCN2CCCCC2)cc1)c1c(-c2ccc(O)cc2)sc2cc(O)ccc12 [Raloxifene]	0
COc1c(C)cnc(Cn2cnc3c(Cl)nc(N)nc32)c1C [BIIB021]	21.9

These molecules were tested on BT-474 (assay: drug sensitivity score (DSS), CellTox Green (DSS (AUC-based score)); higher = stronger drug effect (viability inhibition or cytotoxicity); extreme values may be limits of the assay). Details: incubation time: 72 h.
How it was run: as §1

SMILES	drug sensitivity score
Cc1cc(C(C)Nc2ccccc2)c2nc(N3CCOCC3)cc(=O)n2c1 (centres undefined) [TGX-221]	0
CC(C)C[C@H](NC(=O)[C@H](Cc1ccccc1)NC(=O)c1cnccn1)B(O)O [Bortezomib]	6.53
O=C(c1ccc(OCCN2CCCCC2)cc1)c1c(-c2ccc(O)cc2)sc2cc(O)ccc12 [Raloxifene]	0
COc1c(C)cnc(Cn2cnc3c(Cl)nc(N)nc32)c1C [BIIB021]	4.79

Each molecule was assayed on BT-549 in the same assay as above. Details: incubation time: 72 h.
How it was run: as §1

SMILES	drug sensitivity score
Cc1cc(C(C)Nc2ccccc2)c2nc(N3CCOCC3)cc(=O)n2c1 (centres undefined) [TGX-221]	0
CC(C)C[C@H](NC(=O)[C@H](Cc1ccccc1)NC(=O)c1cnccn1)B(O)O [Bortezomib]	6.42
O=C(c1ccc(OCCN2CCCCC2)cc1)c1c(-c2ccc(O)cc2)sc2cc(O)ccc12 [Raloxifene]	0
COc1c(C)cnc(Cn2cnc3c(Cl)nc(N)nc32)c1C [BIIB021]	0

The molecules below were run on CAL-120 in the same assay as above. Details: incubation time: 72 h.
How it was run: as §1

SMILES	drug sensitivity score
Cc1cc(C(C)Nc2ccccc2)c2nc(N3CCOCC3)cc(=O)n2c1 (centres undefined) [TGX-221]	0
CC(C)C[C@H](NC(=O)[C@H](Cc1ccccc1)NC(=O)c1cnccn1)B(O)O [Bortezomib]	13.6

Reference: the supplement of paper PMC4862054
